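Compound exposure: 48 hours, 5 concentrations, 96-well plates. At the GI50, growth is halved.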 Active and inactive are the calls of the source. No stated cut-off is given here; in the data, active = GI50 up to about 1.1 µM and inactive = higher.
What was measured:
Assay in all cases: NCI tumour cell line growth inhibition, 48 h
A549 = test system: A549
MOLT-4 = test system: MOLT-4
TK-10 = test system: TK-10
SF-295 = test system: SF-295
HT-29 = test system: HT-29
A498 = test system: A498
HOP-92 = test system: HOP-92
SNB-19 = test system: SNB-19
UACC-62 = test system: UACC-62
SR = test system: SR
SK-OV-3 = test system: SK-OV-3
HOP-62 = test system: HOP-62
SN12C = test system: SN12C
SK-MEL-28 = test system: SK-MEL-28
SK-MEL-5 = test system: SK-MEL-5
NCI-H460 = test system: NCI-H460
OVCAR-4 = test system: OVCAR-4
HCT-15 = test system: HCT-15

Measured: GI50

N/C(=C\c1ccc(OCc2ccccc2)c(OCc2ccccc2)c1[N+](=O)[O-])C(=O)O
inactive: A549 > 100 µM | MOLT-4 > 100 µM | TK-10 > 100 µM | SF-295 > 100 µM | HT-29 > 100 µM | A498 > 100 µM | HOP-92 > 100 µM | SNB-19 > 100 µM | UACC-62 > 100 µM | SR > 100 µM | SK-OV-3 > 100 µM | HOP-62 > 100 µM | SN12C > 100 µM | SK-MEL-28 > 100 µM | SK-MEL-5 > 100 µM

COc1cc2c3c(c1OCc1ccccc1)NCCC3NCC2 (stereo not drawn)
inactive: A549 > 100 µM | MOLT-4 > 100 µM | TK-10 > 100 µM | SF-295 > 100 µM | HT-29 > 100 µM | NCI-H460 > 100 µM | A498 > 100 µM | HOP-92 86.1 µM | SNB-19 > 100 µM | UACC-62 > 100 µM | OVCAR-4 > 100 µM | SR > 100 µM | HOP-62 > 100 µM | SN12C > 100 µM | SK-MEL-5 > 100 µM
> 100 µM: HCT-15

CCN(CC)c1ccc(C2N3CCCCC3[C@@H]3c4[nH]c5ccccc5c4CCN23)cc1 (stereo partly drawn)
inactive: A549 49.1 µM | MOLT-4 25.5 µM | TK-10 27.2 µM | SF-295 53.7 µM | HT-29 16.1 µM | NCI-H460 22.3 µM | A498 14.5 µM | HOP-92 38.1 µM | SNB-19 32.5 µM | UACC-62 19.5 µM | OVCAR-4 36.5 µM | SK-OV-3 69.7 µM | HOP-62 > 100 µM | SN12C 19.7 µM | SK-MEL-28 25.9 µM | SK-MEL-5 17.3 µM
34.8 µM: HCT-15

CCCCN(CCCC)CC(C(=O)Nc1ccc([N+](=O)[O-])cc1[N+](=O)[O-])/C(C)=N\NC(=S)NN (stereo not drawn)
inactive: A549 > 100 µM | MOLT-4 70 µM | TK-10 > 100 µM | SF-295 > 100 µM | HT-29 > 100 µM | NCI-H460 > 100 µM | A498 > 100 µM | HOP-92 42.1 µM | UACC-62 > 100 µM | SK-OV-3 > 100 µM | HOP-62 > 100 µM | SK-MEL-28 > 100 µM | SK-MEL-5 > 100 µM

O[C@]12CCCC[C@H]1CCC2
> 100 µM: HCT-15
inactive: A549 > 100 µM | MOLT-4 > 100 µM | TK-10 > 100 µM | SF-295 > 100 µM | HT-29 > 100 µM | NCI-H460 > 100 µM | A498 > 100 µM | HOP-92 > 100 µM | SNB-19 > 100 µM | UACC-62 > 100 µM | OVCAR-4 > 100 µM | SK-OV-3 > 100 µM | HOP-62 > 100 µM | SN12C > 100 µM | SK-MEL-28 > 100 µM | SK-MEL-5 > 100 µM

Cc1ccc(O)c(/N=N/c2ccc(S(=O)(=O)O)cc2)n1
> 100 µM: HCT-15
inactive: A549 > 100 µM | MOLT-4 > 100 µM | TK-10 > 100 µM | SF-295 > 100 µM | NCI-H460 > 100 µM | A498 > 100 µM | HOP-92 > 100 µM | UACC-62 > 100 µM | SK-OV-3 > 100 µM | SN12C > 100 µM | SK-MEL-28 > 100 µM | SK-MEL-5 > 100 µM

COc1cc(C2c3cc4c(cc3[C@@H](NCCN3CCCCC3)C3COC(=O)[C@H]23)OCO4)cc(OC)c1O (stereo partly drawn)
active: A549 0.0656 µM | MOLT-4 0.0164 µM | SF-295 0.107 µM | A498 0.165 µM | HOP-92 0.142 µM | SNB-19 0.354 µM | UACC-62 0.272 µM | OVCAR-4 0.253 µM | SK-OV-3 0.098 µM | HOP-62 0.064 µM | SK-MEL-5 0.394 µM
inactive: TK-10 1.65 µM | HT-29 1.19 µM | SN12C 1.91 µM | SK-MEL-28 2.11 µM
0.313 µM: HCT-15

COC(=O)CC(C(C(=O)OC)C(=O)OC)N1C(=O)OC(c2ccccc2)C1c1ccccc1 (stereo not drawn)
53.6 µM: HCT-15
inactive: A549 > 100 µM | MOLT-4 > 100 µM | TK-10 > 100 µM | SF-295 > 100 µM | HT-29 > 100 µM | NCI-H460 94.2 µM | A498 > 100 µM | HOP-92 > 100 µM | SNB-19 > 100 µM | UACC-62 > 100 µM | OVCAR-4 > 100 µM | SK-OV-3 > 100 µM | HOP-62 > 100 µM | SN12C > 100 µM | SK-MEL-28 > 100 µM | SK-MEL-5 > 100 µM

Cc1c(O)c(=O)ccn1CCN
inactive: A549 > 100 µM | MOLT-4 > 100 µM | TK-10 > 100 µM | HT-29 > 100 µM | NCI-H460 > 100 µM | A498 > 100 µM | HOP-92 > 100 µM | SNB-19 > 100 µM | UACC-62 > 100 µM | OVCAR-4 > 100 µM | SK-OV-3 > 100 µM | SN12C > 100 µM | SK-MEL-28 > 100 µM
> 100 µM: HCT-15
